Source: US20150105252A1, “SUBSTITUTED PYRAZOLES AS HERBICIDES” (E I DU PONT DE NEMOURS AND COMPANY, priority 2013, published 2015)

What was measured:
Assay in all cases: Test F preemergence
[1] = test system: common waterhemp; type: in vivo, Amaranthus rudis
Description: (§1) Seeds of plant species selected from corn (Zea mays), soybean (Glycine max), velvetleaf (Abutilon theophrasti), lambsquarters (Chenopodium album), wild poinsettia (Euphorbia heterophylla), pigweed, palmer (palmer pigweed, Amaranthus palmeri), common waterhemp (Amaranthus rudis), surinam grass (Brachiaria decumbens), large crabgrass (Digitaria sanguinalis), crabgrass, Brazil (Brazilian crabgrass, Digitaria horizontalis), fall panicum (Panicum dichotomiflorum), giant foxtail (Setaria faberii), green foxtail (Setaria viridis), goosegrass (Eleusine indica), johnsongrass (Sorghum halepense), common ragweed (Ambrosia elation), barnyardgrass (Echinochloa crus-galli), southern sandbur (Cenchrus echinatus), arrowleaf sida (Sida rhombifolia), Italian ryegrass (Lolium multiflorum), dayflower, VA (Virginia (VA) dayflower, Commelina virginica), field bindweed (Convolvulus arvensis), cocklebur (common cocklebur, Xanthium strumarium), morningglory (Ipomoea coccinea), nightshade (eastern black nightshade, Solanum ptycanthum), kochia (Kochia scoparia), yellow nutsedge (Cyperus esculentus), and hairy beggarticks (Bidens pilosa), were planted into a silt loam soil and treated preemergence with test chemicals formulated in a non-phytotoxic solvent mixture which included a surfactant.
(§2) At the same time, plants from these crop and weed species and also horseweed (Canada horseweed, Conyza canadensis), smartweed (ladysthumb smartweed, Polygonum persicaria), waterhemp_RES1, (ALS & Triazine resistant common waterhemp, Amaranthus rudis), and waterhemp_RES2, (ALS & HPPD resistant common waterhemp, Amaranthus rudis) were treated with postemergence applications of test chemicals formulated in the same manner. Plants ranged in height from 2 to 18 cm for postemergence treatments (1- to 4-leaf stage). Treated plants and controls were maintained in a greenhouse for 14 to 21 days, after which time all species were compared to controls and visually evaluated. Plant response ratings, summarized in Table F, are based on a scale of 0 to 100 where 0 is no effect and 100 is complete control. A dash (-) response means no test result.

[2] = test system: arrowleaf sida; type: in vivo, Sida rhombifolia
Description: as §1, §2

[3] = test system: Italian ryegrass; type: in vivo, Lolium multiflorum
Description: as §1, §2

[4] = test system: dayflower, VA; type: in vivo, Commelina virginica
Description: as §1, §2

[5] = test system: field bindweed; type: in vivo, Convolvulus arvensis
Description: as §1, §2

[6] = Preemergence, 250 g ai/ha, scale 0 to 100
[7] = Preemergence, 16 g ai/ha, scale 0 to 100
[8] = Preemergence, 62 g ai/ha, scale 0 to 100
[9] = Preemergence, 125 g ai/ha, scale 0 to 100
[10] = preemergence, 16 g ai/ha, scale 0 to 100, 100 is complete control
[11] = Preemergence, 31 g ai/ha, scale 0 to 100
[12] = preemergence, 8 g ai/ha, scale 0 to 100, 100 is complete control

Row | Compound | Plant response rating, Common Waterhemp [1, 7] | Plant response rating, Common Waterhemp [1, 8] | Plant response rating, Common Waterhemp [1, 9] | Plant response rating, Arrowleaf Sida [2, 8] | Plant response rating, Arrowleaf Sida [2, 9] | Plant response rating, Arrowleaf Sida [2, 10] | Plant response rating, Italian Ryegrass [3, 8] | Plant response rating, Italian Ryegrass [3, 9] | Plant response rating, Italian Ryegrass [3, 10] | Plant response rating, Dayflower, VA [4, 8] | Plant response rating, Dayflower, VA [4, 9] | Plant response rating, Dayflower, VA [4, 10] | Plant response rating, Field Bindweed [5, 8] | Plant response rating, Field Bindweed [5, 9] | Plant response rating, Field Bindweed [5, 10] | Plant response rating, Common Waterhemp [1, 12] | Plant response rating, Arrowleaf Sida [2, 12] | Plant response rating, Italian Ryegrass [3, 12] | Plant response rating, Dayflower, VA [4, 12] | Plant response rating, Field Bindweed [5, 12] | further results
1 | CCc1cc(C(=O)NC2CC2)nn1Cc1ccnc(OCC(F)(F)F)c1 [Compound 200] | 0 | 20 | 100 | 5 | 35 | 0 | 0 | 60 | 0 | 0 | 10 | 0 | 0 | 50 | 0 | – | – | – | – | – | Plant response rating, Common Waterhemp [1, 6]: 100; Plant response rating, Arrowleaf Sida [2, 6]: 80; Plant response rating, Arrowleaf Sida [2, 7]: 0; Plant response rating, Italian Ryegrass [3, 6]: 75; Plant response rating, Dayflower, VA [4, 6]: 60; Plant response rating, Field Bindweed [5, 6]: 60; Plant response rating, Field Bindweed [5, 7]: 0
2 | CCNC(=O)c1cc(CCCl)n(Cc2ccnc(C(F)(F)F)c2)n1 [Compound 179] | – | 25 | 75 | 0 | 35 | – | 40 | 65 | – | 10 | 40 | – | 50 | 75 | – | 0 | 0 | 0 | 0 | 0 | Plant response rating, Common Waterhemp [1, 11]: 0; Plant response rating, Arrowleaf Sida [2, 11]: 0; Plant response rating, Italian Ryegrass [3, 11]: 10; Plant response rating, Dayflower, VA [4, 11]: 0; Plant response rating, Field Bindweed [5, 11]: 5
3 | Cc1cc(C(=O)NC(C)C)nn1Cc1ccnc(C(F)(F)F)c1 [Compound 197] | 65 | 65 | 85 | 5 | 10 | 5 | 30 | 30 | 0 | 0 | 40 | 0 | 50 | 80 | 15 | 20 | 0 | 0 | 0 | 10 | Plant response rating, Common Waterhemp [1, 10]: 60; Plant response rating, Arrowleaf Sida [2, 7]: 5; Plant response rating, Field Bindweed [5, 7]: 35
4 | CCNC(=O)c1cc(CC)n(Cc2ccnc(C(F)(F)F)c2)n1 [Compound 196] | 50 | 75 | 100 | 5 | 70 | 0 | 20 | 50 | 0 | 35 | 75 | 0 | 75 | 85 | 10 | 0 | 0 | 0 | 0 | 5 | Plant response rating, Common Waterhemp [1, 10]: 35; Plant response rating, Arrowleaf Sida [2, 7]: 0; Plant response rating, Field Bindweed [5, 7]: 20
5 | CCOc1cc(C(=O)NCC(F)(F)F)nn1Cc1ccnc(C(F)(F)F)c1 [Compound 104] | – | 100 | 100 | 20 | 30 | 0 | 60 | 75 | 0 | 98 | 100 | 0 | 50 | 95 | 10 | 65 | 0 | 0 | 0 | 0 | Plant response rating, Common Waterhemp [1, 11]: 100; Plant response rating, Common Waterhemp [1, 10]: 98; Plant response rating, Arrowleaf Sida [2, 11]: 10; Plant response rating, Italian Ryegrass [3, 11]: 40; Plant response rating, Dayflower, VA [4, 11]: 50; Plant response rating, Field Bindweed [5, 11]: 30
